Assay results from patent publication US20190313934A1, “DEVICE AND SYSTEM FOR MONITORING AND TREATING MUSCLE TENSION-RELATED MEDICAL CONDITIONS” (Biotrak Health, Inc., priority 2016, published 2019).

Key:
[1] = Evaluation of analgesics, alone or with the prototype Halo system, on a human subject with recurring headaches; format: in vivo; settings: one subject
Procedure: The subject was a person in New York City with a history of recurring headaches. Tests were conducted in three stages between December 2016 and March 2017. In the first stage the subject used various over-the-counter analgesics at recommended dosages to manage headache symptoms (Sessions 1 and 2). Conditions were self-assessed prior to drug administration according to a standard headache scale, and then qualitatively reassessed for the extent of relief. In the second stage, the subject took an analgesic at the same time of using a prototype Halo™ system for 5 min (Session 3). In the third stage the subject used the prototype Halo™ system alone for a duration of 10 min on three occasions (Sessions 4-6).

[2] = diazepam combined with EMG biofeedback; chronic anxious patients; cited from earlier work

CC(=O)Oc1ccccc1C(=O)O [aspirin]
Relief ([1]; over-the-counter analgesic alone at recommended dosage, qualitative self-assessment of headache relief): Moderate

CN1C(=O)CN=C(c2ccccc2)c2cc(Cl)ccc21 [diazepam]
Effect on muscular tension [2]: effectively reduced muscular tension

COc1ccc2cc([C@H](C)C(=O)O)ccc2c1 [naproxen]
Relief ([1]; analgesic taken at the same time as using prototype Halo system for 5 min, qualitative self-assessment): Complete
